# Where “and” joins values, the source holds several entries; their conditions need not be identical. Identical values can stand only once.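 Dose response: 5 concentrations. Exposure: 48 h. Format: 96-well plates. Endpoint: linear interpolation; highest concentration if not reached. Abbreviation: GI50, concentration required for 50% inhibition of growth. TGI: total growth inhibition.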
# Assays:
# Assay in all cases: NCI anticancer screen, dose series, 48 h
# 786-0 renal = system: 786-0 renal
# A498 renal = system: A498 renal
# A549 NSCLC = system: A549 NSCLC
# ACHN renal = system: ACHN renal
# BT-549 breast = system: BT-549 breast
# CAKI-1 renal = system: CAKI-1 renal
# CCRF-CEM leukemia = system: CCRF-CEM leukemia
# COLO 205 colon = system: COLO 205 colon
# DU-145 prostate = system: DU-145 prostate
# EKVX NSCLC = system: EKVX NSCLC
# HCC-2998 colon = system: HCC-2998 colon
# HCT-116 colon = system: HCT-116 colon
# HCT-15 colon = system: HCT-15 colon
# HL-60(TB) leukemia = system: HL-60(TB) leukemia
# HOP-62 NSCLC = system: HOP-62 NSCLC
# HOP-92 NSCLC = system: HOP-92 NSCLC
# HS 578T breast = system: HS 578T breast
# HT29 colon = system: HT29 colon
# IGROV1 ovarian = system: IGROV1 ovarian
# K-562 leukemia = system: K-562 leukemia
# KM12 colon = system: KM12 colon
# LOX IMVI melanoma = system: LOX IMVI melanoma
# M14 melanoma = system: M14 melanoma
# MALME-3M melanoma = system: MALME-3M melanoma
# MCF7 breast = system: MCF7 breast
# MDA-MB-231 breast = system: MDA-MB-231 breast
# MDA-MB-435 = system: MDA-MB-435
# MOLT-4 leukemia = system: MOLT-4 leukemia
# NCI-H226 lung = system: NCI-H226 lung
# NCI-H23 lung = system: NCI-H23 lung
# NCI-H460 lung = system: NCI-H460 lung
# NCI-H522 lung = system: NCI-H522 lung
# NCI/ADR-RES ovarian = system: NCI/ADR-RES ovarian
# OVCAR-3 ovarian = system: OVCAR-3 ovarian
# OVCAR-4 ovarian = system: OVCAR-4 ovarian
# OVCAR-5 ovarian = system: OVCAR-5 ovarian
# OVCAR-8 ovarian = system: OVCAR-8 ovarian
# PC-3 prostate = system: PC-3 prostate
# RPMI-8226 leukemia = system: RPMI-8226 leukemia
# RXF 393 renal = system: RXF 393 renal
# SF-268 CNS = system: SF-268 CNS
# SF-295 CNS = system: SF-295 CNS
# SF-539 CNS = system: SF-539 CNS
# SK-MEL-2 melanoma = system: SK-MEL-2 melanoma
# SK-MEL-28 melanoma = system: SK-MEL-28 melanoma
# SK-MEL-5 melanoma = system: SK-MEL-5 melanoma
# SK-OV-3 ovarian = system: SK-OV-3 ovarian
# SN12C renal = system: SN12C renal
# SNB-19 CNS = system: SNB-19 CNS
# SNB-75 CNS = system: SNB-75 CNS
# SR leukemia = system: SR leukemia
# SW-620 colon = system: SW-620 colon
# T-47D breast = system: T-47D breast
# TK-10 renal = system: TK-10 renal
# U251 CNS = system: U251 CNS
# UACC-257 melanoma = system: UACC-257 melanoma
# UO-31 renal = system: UO-31 renal
compound,measurement,setting,value
Cn1ncc(-c2ccc3c(=O)[nH]nc(CN)c3c2)c1-c1c(F)c(Cl)cc(OC2CC2)c1C#N,GI50,786-0 renal,13.4 µM and 12.3 µM
same,TGI,786-0 renal,29.5 µM and 26 µM
same,GI50,A498 renal,16 µM and 14.3 µM
same,TGI,A498 renal,29.8 µM and 27.5 µM
same,GI50,A549 NSCLC,15.8 µM and 15.4 µM
same,TGI,A549 NSCLC,33.9 µM and 32.2 µM
same,GI50,ACHN renal,15.8 µM and 15.3 µM
same,TGI,ACHN renal,30.5 µM and 28.9 µM
same,GI50,BT-549 breast,14.9 µM and 14.3 µM
same,TGI,BT-549 breast,30.2 µM and 28.6 µM
same,GI50,CAKI-1 renal,11.6 µM and 11.2 µM
same,TGI,CAKI-1 renal,24.1 µM and 23.6 µM
same,GI50,CCRF-CEM leukemia,22.3 µM and 33.4 µM
same,TGI,CCRF-CEM leukemia,> 100 µM
same,GI50,COLO 205 colon,11.8 µM and 10.9 µM
same,TGI,COLO 205 colon,26.9 µM and 25.1 µM
same,GI50,DU-145 prostate,16.9 µM and 14.4 µM
same,TGI,DU-145 prostate,32.2 µM and 28.1 µM
same,GI50,EKVX NSCLC,14.9 µM and 14 µM
same,TGI,EKVX NSCLC,30.5 µM and 29.6 µM
same,GI50,HCC-2998 colon,14.2 µM and 14.5 µM
same,TGI,HCC-2998 colon,28 µM and 28.3 µM
same,GI50,HCT-116 colon,13.1 µM and 12.8 µM
same,TGI,HCT-116 colon,29.1 µM and 27.5 µM
same,GI50,HCT-15 colon,14.7 µM and 14.3 µM
same,TGI,HCT-15 colon,30 µM and 28.9 µM
same,GI50,HL-60(TB) leukemia,20.6 µM and 23.1 µM
same,TGI,HL-60(TB) leukemia,> 100 µM
same,GI50,HOP-62 NSCLC,16.1 µM and 13.4 µM
same,TGI,HOP-62 NSCLC,33.7 µM and 27.8 µM
same,GI50,HOP-92 NSCLC,12.9 µM and 10.1 µM
same,TGI,HOP-92 NSCLC,31.1 µM and 25.5 µM
same,GI50,HS 578T breast,12.4 µM and 11 µM
same,TGI,HS 578T breast,33.8 µM and 29.9 µM
same,GI50,HT29 colon,11.6 µM and 10.3 µM
same,TGI,HT29 colon,29.6 µM and 22.7 µM
same,GI50,IGROV1 ovarian,14.2 µM and 11.6 µM
same,TGI,IGROV1 ovarian,30.1 µM and 24.6 µM
same,GI50,K-562 leukemia,14.5 µM and 14.8 µM
same,TGI,K-562 leukemia,92.1 µM and > 100 µM
same,GI50,KM12 colon,13.9 µM and 12.4 µM
same,TGI,KM12 colon,28.3 µM and 25.6 µM
same,GI50,LOX IMVI melanoma,12.5 µM and 12.9 µM
same,TGI,LOX IMVI melanoma,25.6 µM and 26.2 µM
same,GI50,M14 melanoma,14.2 µM and 13.4 µM
same,TGI,M14 melanoma,28.9 µM and 27.5 µM
same,GI50,MALME-3M melanoma,14.2 µM and 12.2 µM
same,TGI,MALME-3M melanoma,28.8 µM and 25.5 µM
same,GI50,MCF7 breast,10.8 µM and 10.2 µM
same,TGI,MCF7 breast,23.6 µM and 23.3 µM
same,GI50,MDA-MB-231 breast,14.7 µM and 13.8 µM
same,TGI,MDA-MB-231 breast,29.8 µM and 28.4 µM
same,GI50,MDA-MB-435,11.9 µM and 10.7 µM
same,TGI,MDA-MB-435,24.7 µM and 22.9 µM
same,GI50,MOLT-4 leukemia,10.9 µM and 11.7 µM
same,TGI,MOLT-4 leukemia,> 100 µM
same,GI50,NCI-H226 lung,15.7 µM and 13.2 µM
same,TGI,NCI-H226 lung,32 µM and 27.4 µM
same,GI50,NCI-H23 lung,15.3 µM and 14.3 µM
same,TGI,NCI-H23 lung,32 µM and 29.6 µM
same,GI50,NCI-H460 lung,13.6 µM and 12.4 µM
same,TGI,NCI-H460 lung,28.8 µM and 26.7 µM
same,GI50,NCI-H522 lung,12.7 µM and 9.22 µM
same,TGI,NCI-H522 lung,27.4 µM and 23.1 µM
same,GI50,NCI/ADR-RES ovarian,35 µM and 25.5 µM
same,TGI,NCI/ADR-RES ovarian,> 100 µM
same,GI50,OVCAR-3 ovarian,15 µM and 12.6 µM
same,TGI,OVCAR-3 ovarian,30.6 µM and 26.5 µM
same,GI50,OVCAR-4 ovarian,14.5 µM and 12.6 µM
same,TGI,OVCAR-4 ovarian,29.1 µM and 26.2 µM
same,GI50,OVCAR-5 ovarian,20.4 µM and 16.8 µM
same,TGI,OVCAR-5 ovarian,77 µM and 44.7 µM
same,GI50,OVCAR-8 ovarian,13.9 µM and 13.7 µM
same,TGI,OVCAR-8 ovarian,27.4 µM and 27.1 µM
same,GI50,PC-3 prostate,19.9 µM and 17.1 µM
same,TGI,PC-3 prostate,66.8 µM and 48.2 µM
same,GI50,RPMI-8226 leukemia,14.9 µM and 16 µM
same,TGI,RPMI-8226 leukemia,47.5 µM and 47.8 µM
same,GI50,RXF 393 renal,6.22 µM and 2.24 µM
same,TGI,RXF 393 renal,21.4 µM and 12.9 µM
same,GI50,SF-268 CNS,14.1 µM and 12.8 µM
same,TGI,SF-268 CNS,28.8 µM and 26.7 µM
same,GI50,SF-295 CNS,14.3 µM and 13.3 µM
same,TGI,SF-295 CNS,28.4 µM and 27.2 µM
same,GI50,SF-539 CNS,14.4 µM and 13.1 µM
same,TGI,SF-539 CNS,28 µM and 26.7 µM
same,GI50,SK-MEL-2 melanoma,15.3 µM and 13.6 µM
same,TGI,SK-MEL-2 melanoma,29.1 µM and 26.8 µM
same,GI50,SK-MEL-28 melanoma,14.3 µM and 13.7 µM
same,TGI,SK-MEL-28 melanoma,27.8 µM and 27.2 µM
same,GI50,SK-MEL-5 melanoma,12 µM and 14.3 µM
same,TGI,SK-MEL-5 melanoma,24.4 µM and 27.5 µM
same,GI50,SK-OV-3 ovarian,20.4 µM and 17.4 µM
same,TGI,SK-OV-3 ovarian,40.5 µM and 33.3 µM
same,GI50,SN12C renal,13.5 µM and 11.8 µM
same,TGI,SN12C renal,28.7 µM and 25.3 µM
same,GI50,SNB-19 CNS,15.3 µM and 14.6 µM
same,TGI,SNB-19 CNS,31.7 µM and 29.5 µM
same,GI50,SNB-75 CNS,11.1 µM and 5.4 µM
same,TGI,SNB-75 CNS,23.7 µM and 20.7 µM
same,GI50,SR leukemia,13.1 µM and 12.3 µM
same,TGI,SR leukemia,34.8 µM and 41 µM
same,GI50,SW-620 colon,13.8 µM and 12.6 µM
same,TGI,SW-620 colon,29.4 µM and 27.3 µM
same,GI50,T-47D breast,12.3 µM and 6.06 µM
same,TGI,T-47D breast,36.5 µM and 28.4 µM
same,GI50,TK-10 renal,16.2 µM and 13.7 µM
same,TGI,TK-10 renal,31.8 µM and 27.2 µM
same,GI50,U251 CNS,14.9 µM and 13.7 µM
same,TGI,U251 CNS,29.5 µM and 27.5 µM
same,GI50,UACC-257 melanoma,13.9 µM and 14.1 µM
same,TGI,UACC-257 melanoma,28.4 µM and 29.4 µM
same,GI50,UO-31 renal,12.4 µM and 10.3 µM
same,TGI,UO-31 renal,24.9 µM and 22.1 µM
